# Source: patent US20240390298A1, “CYCLOHEXYL BETA-HYDROXY ALKYL AMINES AND MEDICAL USES THEREOF” (ATROGI AB, priority 2021, published 2024)
# Where a name gives a salt, the structure may show the parent alone.
# Legend:
# [1] = test system: L6-myotubes; assay: Measurement of intracellular cAMP levels in differentiated L6 cells (alpha screen cAMP kit), compared to isoproterenol; format: cell-based; settings: Rattus norvegicus, L6, 0.25 h, agonist 1×10^−5 M, 15 min, read-out: Biological example 2: intracellular cAMP levels, activity compared to that of isoproterenol
# How it was run: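 L6 myoblasts were differentiated into myotubes over 7 days in 2% FBS, then serum-starved overnight. Agonist at 1×10^−5 M final was applied for 15 min in HBSS with 1% BSA, 5 mM HEPES and 1 mM IBMX, pH 7.4. After ethanol extraction and lysis, cAMP was quantified by AlphaScreen, with activity expressed relative to isoproterenol.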
# [2] = test system: L6-myotubes; assay: Glucose uptake in differentiated L6-myotubes (3H-2-deoxyglucose), compared to isoproterenol; format: cell-based; settings: agonist 1×10^−5 M, 50 nM 3H-2-deoxyglucose
# How it was run: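 Serum-starved differentiated L6 myotubes stimulated with agonist at 1×10^−5 M for 1 h 40 min, re-dosed in glucose-free medium for 20 min, then given 50 nM ^3H-2-deoxyglucose for 10 min. Uptake read by β-counting of NaOH lysates; activity expressed relative to isoproterenol.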
SMILES,Emax at 10 µM [1],"Biological example 1: glucose uptake, activity compared to that of isoproterenol [2]"
"CC(C)(NC[C@H](O)c1cccc(F)c1)[C@H]1CC[C@@H](OCC(=O)O)CC1 [Example 128, 2-(((1S,4s)-4-(2-(((R)-2-(3-Fluorophenyl)-2-hydroxyethyl)amino)propan-2-yl)cyclohexyl)oxy)acetic acid]",< 25%,+ +
"CC(C)(C[C@H]1CC[C@@H](C#N)CC1)NC[C@H](O)c1cccc(F)c1 [Example 129, (1S,4s)-4-(2-(((R)-2-(3-Fluorophenyl)-2-hydroxyethyl)amino)-2-methylpropyl)cyclohexane-1-carbonitrile]",25 to 50%,+ + +
"CC(C)(C[C@H]1CC[C@H](N)CC1)NC[C@@H](O)c1cccc(C#N)n1 [Example 130, 6-((R)-2-((1-((1r,4R)-4-Aminocyclohexyl)-2-methylpropan-2-yl)amino)-1-hydroxyethyl)picolinonitrile trihydrochloride]",< 25%,+ +
"CC(C)(C[C@H]1CC[C@@H](N)CC1)NC[C@@H](O)c1cccc(C#N)n1 [Example 131, 6-((R)-2-((1-((1s,4S)-4-Aminocyclohexyl)-2-methylpropan-2-yl)amino)-1-hydroxyethyl)picolinonitrile trihydrochloride]",< 25%,+ +
"CC(C)(C[C@H]1CC[C@H](N)CC1)NC[C@H](O)c1cccc(C#N)n1 [Example 132, 6-((S)-2-((1-((1r,4S)-4-Aminocyclohexyl)-2-methylpropan-2-yl)amino)-1-hydroxyethyl)picolinonitrile trihydrochloride]",25 to 50%,+ + +
"CC(C)(C[C@H]1CC[C@@H](NC(=O)OC(C)(C)C)CC1)NC[C@H](O)c1cccc(C#N)n1 [Example 133, tert-Butyl ((1R,4s)-4-(2-(((5)-2-(6-Cyanopyridin-2-yl)-2-hydroxyethyl)-amino)-2-methylpropyl)cyclohexyl)carbamate]",< 25%,+ +
"CC(C)(C[C@H]1CC[C@@H](N)CC1)NC[C@H](O)c1cccc(C#N)n1 [Example 134, 6-((S)-2-((1-((1s,4R)-4-Aminocyclohexyl)-2-methylpropan-2-yl)amino)-1-hydroxyethyl)picolinonitrile trihydrochloride]",< 25%,+ +
"CC(=O)N[C@H]1CC[C@H](CC(C)(C)NC[C@@H](O)c2cccc(C#N)n2)CC1 [Example 135, N-((1R,4r)-4-(2-(((R)-2-(6-Cyanopyridin-2-yl)-2-hydroxyethyl)amino)-2-methylpropyl)cyclohexyl)acetamide]",< 25%,+ +
"CC(C)(C[C@H]1CC[C@H](NS(C)(=O)=O)CC1)NC[C@@H](O)c1cccc(C#N)n1 [Example 136, N-((1R,4r)-4-(2-(((R)-2-(6-Cyanopyridin-2-yl)-2-hydroxyethyl)amino)-2-methylpropyl)cyclohexyl)methanesulfonamide]",< 25%,+ +
"CC(=O)N[C@H]1CC[C@@H](CC(C)(C)NC[C@@H](O)c2cccc(C#N)n2)CC1 [Example 137, N-((1S,4s)-4-(2-(((R)-2-(6-Cyanopyridin-2-yl)-2-hydroxyethyl)amino)-2-methylpropyl)cyclohexyl)acetamide]",< 25%,+ +
"CC(C)(C[C@H]1CC[C@@H](NS(C)(=O)=O)CC1)NC[C@@H](O)c1cccc(C#N)n1 [Example 138, N-((1S,4s)-4-(2-(((R)-2-(6-Cyanopyridin-2-yl)-2-hydroxyethyl)amino)-2-methylpropyl)cyclohexyl)methanesulfonamide]",< 25%,+ +
"CC(=O)N[C@H]1CC[C@H](CC(C)(C)NC[C@H](O)c2cccc(C#N)n2)CC1 [Example 139, N-((1S,4r)-4-(2-(((S)-2-(6-Cyanopyridin-2-yl)-2-hydroxyethyl)amino)-2-methylpropyl)cyclohexyl)acetamide]",25 to 50%,+ + +
"CC(C)(C[C@H]1CC[C@H](NS(C)(=O)=O)CC1)NC[C@H](O)c1cccc(C#N)n1 [Example 140, N-((1S,4r)-4-(2-(((S)-2-(6-Cyanopyridin-2-yl)-2-hydroxyethyl)amino)-2-methylpropyl)cyclohexyl)methanesulfonamide]",< 25%,+ + +
"CC(=O)N[C@H]1CC[C@@H](CC(C)(C)NC[C@H](O)c2cccc(C#N)n2)CC1 [Example 141, N-((1R,4s)-4-(2-(((S)-2-(6-Cyanopyridin-2-yl)-2-hydroxyethyl)amino)-2-methylpropyl)cyclohexyl)acetamide]",< 25%,+ + +
"CC(C)(C[C@H]1CC[C@@H](NS(C)(=O)=O)CC1)NC[C@H](O)c1cccc(C#N)n1 [Example 142, N-((1R,4s)-4-(2-(((S)-2-(6-Cyanopyridin-2-yl)-2-hydroxyethyl)amino)-2-methylpropyl)cyclohexyl)methanesulfonamide]",< 25%,+ + +
"CC(=O)N[C@H]1CC[C@@H](CC(C)(C)NC[C@H](O)c2cccnc2C)CC1 [Example 143, N-((1S,4s)-4-(2-(((R)—H-hydroxy-2-(2-methylpyridin-3-yl)ethyl)amino)-2-methylpropyl)cyclohexyl)acetamide dihydrochloride]",< 25%,+ + +
"Cc1ncccc1[C@@H](O)CNC(C)(C)C[C@H]1CC[C@@H](NS(C)(=O)=O)CC1 [Example 144, N-((1S,4s)-4-(2-(((R)-2-Hydroxy-2-(2-methylpyridin-3-yl)ethyl)amino)-2-methylpropyl)cyclohexyl)methanesulfonamide dihydrochloride]",< 25%,+ +
"CC(=O)N[C@H]1CC[C@H](CC(C)(C)NC[C@H](O)c2cccnc2C)CC1.Cl [Example 145, N-((1R,4r)-4-(2-(((R)-2-Hydroxy-2-(2-methylpyridin-3-yl)ethyl)amino)-2-methylpropyl)cyclohexyl)acetamide dihydrochloride]",< 25%,+ + +
"Cc1ncccc1[C@@H](O)CNC(C)(C)C[C@H]1CC[C@H](NS(C)(=O)=O)CC1 [Example 146, N-((1R,4r)-4-(2-(((R)-2Hydroxy-2-(2-methylpyridin-3-yl)ethyl)amino)-2-methylpropyl)cyclohexyl)methanesulfonamide dihydrochloride]",< 25%,+ +
"CC(C)(C[C@H]1CC[C@@H](NC(=O)OC(C)(C)C)CC1)NC[C@H](O)c1cccc(C(F)(F)F)n1 [Example 147, tert-Butyl ((1R,4s)-4-(2-(((S)-2-hydroxy-2-(6-(trifluoromethyl)pyridin-2-yl)ethyl)amino)-2-methylpropyl)cyclohexyl)carbamate]",< 25%,+ +
"CC(C)(C[C@H]1CC[C@H](NC(=O)OC(C)(C)C)CC1)NC[C@H](O)c1cccc(C(F)(F)F)n1 [Example 148, tert-Butyl ((1S,4r)-4-(2-(((S)-2-hydroxy-2-(6-(trifluoromethyl)pyridin-2-yl)ethyl)amino)-2-methylpropyl)cyclohexyl)carbamate]",< 25%,+ + +
"CC(=O)N[C@H]1CC[C@@H](CC(C)(C)NC[C@H](O)c2cccc(C(F)(F)F)n2)CC1 [Example 149, N-((1R,4s)-4-(2-(((S)-2-Hydroxy-2-(6-(trifluoromethyl)pyridin-2-yl)-ethyl)amino)-2-methylpropyl)cyclohexyl)acetamide dihydrochloride]",< 25%,+ +
"CC(C)(C[C@H]1CC[C@@H](NS(C)(=O)=O)CC1)NC[C@H](O)c1cccc(C(F)(F)F)n1 [Example 150, N-((1R,4s)-4-(2-(((S)-2-Hydroxy-2-(6-(trifluoromethyl)pyridin-2-yl)ethyl)-amino)-2-methylpropyl)cyclohexyl)methanesulfonamide dihydrochloride]",< 25%,+ + +
"CC(=O)N[C@H]1CC[C@H](CC(C)(C)NC[C@H](O)c2cccc(C(F)(F)F)n2)CC1 [Example 151, N-((1S,4r)-4-(2-(((S)-2-Hydroxy-2-(6-(trifluoromethyl)pyridin-2-yl)-ethyl)amino)-2-methylpropyl)cyclohexyl)acetamide dihydrochloride]",< 25%,+ + +
"CC(C)(C[C@H]1CC[C@H](NS(C)(=O)=O)CC1)NC[C@H](O)c1cccc(C(F)(F)F)n1 [Example 152, N-((1S,4r)-4-(2-(((S)-2-Hydroxy-2-(6-(trifluoromethyl)pyridin-2-yl)-ethyl)amino)-2-methylpropyl)cyclohexyl)methanesulfonamide dihydrochloride]",< 25%,+ +
